Experimental data taken from patent US20230234948A1, “CYCLOPROPYL DIHYDROQUINOLINE SULFONAMIDE COMPOUNDS” (AMGEN INC., priority 2020, published 2023).

These compounds were tested on CYP3A4 (assay: Human CYP 3A4 induction assay (mRNA, cryopreserved human hepatocytes)). Conditions: 10 uM test compound, 72 hours, percent of control (rifampin positive control).
Assay type: in vitro ADME
Protocol: Human CYP 3A4 Induction Assay
Cryopreserved human hepatocytes were seeded in 96-well collagen coated plates at 70,000 cells per well in hepatocyte plating media (HPM, final concentrations: 1× Dulbecco's Modified Eagle's Medium, 0.1 μM dexamethasone, 10% fetal bovine serum, 1×ITS, 1×PSG) followed by incubation at 37° C. under 5% CO2 and 90% relative humidity for 2 days to allow hepatocytes to form a confluent layer. On Day 3, hepatocytes were treated with either test compound or rifampin (20 μM, positive control for CYP3A induction) prepared in hepatocyte incubation media ((HIM, final concentrations: 1× William's Medium E, 0.1 μM dexamethasone, 1×ITS, 1×PSG). Treatment was performed for 72 hours with either 2 concentrations (2 μM or 10 μM) or a range of concentrations (0.001 μM to 100 μM) of the test compound to obtain full dose-response curve. Fresh media containing the relevant concentrations of the test compound was replaced every day until the samples were processed. After 72 hours of incubation, samples were processed for mRNA analysis using bDNA technology using manufacturer's instructions (Affymetrix, Fremont, Calif.). Cell viability was tested at the end of the experiment using MTT assay kit (Roche Diagnostics, Basel, Switzerland). Data was analyzed and presented as percent of control (POC) and Emax and EC50 obtained when appropriate according to guidance from Center for Drug Evaluation and Research (CDER), 2006, Guidance for Industry, Drug Interaction Studies—Study Design, Data Analysis, and Implications for Dosing and Labeling.
Cryopreserved human hepatocytes were seeded in 96-well collagen coated plates at 70,000 cells per well in hepatocyte plating media (HPM, final concentrations: 1× Dulbecco's Modified Eagle's Medium, 0.1 μM dexamethasone, 10% fetal bovine serum, 1×ITS, 1×PSG) followed by incubation at 37° C. under 5% CO2 and 90% relative humidity for 2 days to allow hepatocytes to form a confluent layer. On Day 3, hepatocytes were treated with either test compound or rifampin (20 μM, positive control for CYP3A induction) prepared in hepatocyte incubation media ((HIM, final concentrations: 1× William's Medium E, 0.1 μM dexamethasone, 1×ITS, 1×PSG). Treatment was performed for 72 hours with either 2 concentrations (2 μM or 10 μM) or a range of concentrations (0.001 μM to 100 μM) of the test compound to obtain full dose-response curve. Fresh media containing the relevant concentrations of the test compound was replaced every day until the samples were processed. After 72 hours of incubation, samples were processed for mRNA analysis using bDNA technology using manufacturer's instructions (Affymetrix, Fremont, Calif.). Cell viability was tested at the end of the experiment using MTT assay kit (Roche Diagnostics, Basel, Switzerland). Data was analyzed and presented as percent of control (POC) and Emax and EC50 obtained when appropriate, as described in Halladay, J. et al, 2012, An “all-inclusive” 96-well cytochrome P450 induction method: Measuring enzyme activity, mRNA levels, protein levels, and cytotoxicity from one well using cryopreserved human hepatocytes, Pharmacological and Toxicological Methods, 66:270-275.
The cytochrome P450 (CYP) is a well-known superfamily of enzymes that are responsible for the oxidative and reductive metabolic transformation of medications used in clinical practice. In addition, the CYP enzymes are commonly associated with causing many clinically relevant drug-drug interactions. […]
`COc1cc([C@@H]2C[C@H]2C(F)(F)F)c(F)cc1-n1c(=O)ccc2cc(S(=O)(=O)Nc3nncs3)ccc21` (atropisomer, axis not shown; (P)) [Example 40, (P)-1-(5-fluoro-2-methoxy-4-((1R,2R)-2-(trifluoromethyl)cyclopropyl)phenyl)-2-oxo-N-(1,3,4-thiadiazol-2-yl)-1,2-dihydroquinoline-6-sulfonamide] was tested, and the “CYP3A4 mRNA Induct Hu 10 uM POC” value was 10.79%.

The compounds below were run against T1, Human NaV1.7 (Homo sapiens, UniProt Q15858) (assay: Ionworks Barracuda (IWB) automated patch clamp assay). Conditions: human NaV1.7 in HEK cells, population patch-clamp, state- and use-dependent voltage protocol; read-out: hNaV1.7 IWB-U IC50.
T1 construct: expressed in transfected cells; host or cells: Spiking HEK cells (without Kir2.1 transfection)
T1 sequence (Q15858 whole entry): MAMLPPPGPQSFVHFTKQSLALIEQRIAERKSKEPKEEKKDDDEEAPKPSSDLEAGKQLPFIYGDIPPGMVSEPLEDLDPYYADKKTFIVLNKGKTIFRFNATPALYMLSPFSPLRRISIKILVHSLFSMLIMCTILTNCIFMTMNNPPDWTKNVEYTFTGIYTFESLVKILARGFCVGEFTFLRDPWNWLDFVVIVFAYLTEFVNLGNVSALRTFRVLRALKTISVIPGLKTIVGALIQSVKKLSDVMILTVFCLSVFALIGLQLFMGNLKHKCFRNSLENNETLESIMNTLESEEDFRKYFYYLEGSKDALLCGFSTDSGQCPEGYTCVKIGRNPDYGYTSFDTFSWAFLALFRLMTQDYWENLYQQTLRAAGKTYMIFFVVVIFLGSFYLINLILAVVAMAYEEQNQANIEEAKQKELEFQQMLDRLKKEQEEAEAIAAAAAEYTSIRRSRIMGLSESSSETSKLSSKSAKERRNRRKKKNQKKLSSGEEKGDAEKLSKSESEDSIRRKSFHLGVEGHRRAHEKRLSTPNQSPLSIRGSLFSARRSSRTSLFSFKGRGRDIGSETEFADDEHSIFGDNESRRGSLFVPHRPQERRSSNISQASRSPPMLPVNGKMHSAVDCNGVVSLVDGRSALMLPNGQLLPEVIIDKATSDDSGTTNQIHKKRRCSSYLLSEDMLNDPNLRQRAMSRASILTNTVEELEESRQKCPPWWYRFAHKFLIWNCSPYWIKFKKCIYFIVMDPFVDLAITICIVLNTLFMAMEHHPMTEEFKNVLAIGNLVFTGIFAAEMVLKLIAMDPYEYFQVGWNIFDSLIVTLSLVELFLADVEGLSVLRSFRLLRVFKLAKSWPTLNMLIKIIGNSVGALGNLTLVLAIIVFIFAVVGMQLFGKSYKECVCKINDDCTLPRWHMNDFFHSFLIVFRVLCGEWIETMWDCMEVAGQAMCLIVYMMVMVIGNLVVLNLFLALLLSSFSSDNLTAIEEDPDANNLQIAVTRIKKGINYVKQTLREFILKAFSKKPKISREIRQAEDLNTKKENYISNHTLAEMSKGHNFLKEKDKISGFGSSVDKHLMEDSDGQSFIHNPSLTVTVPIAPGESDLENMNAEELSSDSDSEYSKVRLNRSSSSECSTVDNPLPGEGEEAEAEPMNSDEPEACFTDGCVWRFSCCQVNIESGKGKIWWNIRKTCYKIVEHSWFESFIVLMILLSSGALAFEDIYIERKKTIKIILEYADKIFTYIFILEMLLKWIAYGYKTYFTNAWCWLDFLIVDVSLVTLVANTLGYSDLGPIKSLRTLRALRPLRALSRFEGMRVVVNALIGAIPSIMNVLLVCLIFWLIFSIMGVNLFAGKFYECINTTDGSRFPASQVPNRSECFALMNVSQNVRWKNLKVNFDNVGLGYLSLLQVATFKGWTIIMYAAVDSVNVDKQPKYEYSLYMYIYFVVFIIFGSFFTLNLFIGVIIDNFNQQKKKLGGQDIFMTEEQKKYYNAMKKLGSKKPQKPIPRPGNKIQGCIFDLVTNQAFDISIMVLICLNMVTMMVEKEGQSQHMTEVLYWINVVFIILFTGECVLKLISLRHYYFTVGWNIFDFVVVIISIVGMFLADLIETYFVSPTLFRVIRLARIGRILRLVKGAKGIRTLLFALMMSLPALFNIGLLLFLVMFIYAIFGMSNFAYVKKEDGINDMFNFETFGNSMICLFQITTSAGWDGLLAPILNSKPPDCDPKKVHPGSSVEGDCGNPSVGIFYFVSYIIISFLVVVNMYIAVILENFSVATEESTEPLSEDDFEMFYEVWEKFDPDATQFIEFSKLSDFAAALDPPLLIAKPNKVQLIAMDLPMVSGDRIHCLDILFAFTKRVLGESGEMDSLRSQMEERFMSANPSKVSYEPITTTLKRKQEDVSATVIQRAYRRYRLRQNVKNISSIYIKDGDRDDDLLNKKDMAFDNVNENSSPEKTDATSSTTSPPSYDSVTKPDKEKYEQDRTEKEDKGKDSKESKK
Assay type: cell-based
Protocol: Ionworks Barracuda (IWB) Automated Patch Clamp Assay (Same Protocol for Both Human and Mouse)
Human NaV1.7 currents were recorded in population patch-clamp mode with the IWB automated electrophysiology system (Molecular Devices, LLC, Sunnyvale, Calif.). Spiking HEK cells (without Kir2.1 transfection) were cultured and prepared for recordings as previously described for IonWorks Quattro testing^1. The external solution consisted of the following (in mM): NaCl 140, KCl 5, CaCl2 2, MgCl2 1, HEPES 10, and glucose 11, pH 7.4, with N-methyl-D-glucamine at 320 mOsmol. […] From a holding potential of −110 mV, currents were elicited by a train of 26 depolarizations of 150 ms duration to −20 mV at a frequency of 5 Hz. Cells were then clamped to −20 mV for a period of 4 minutes in the presence of a single concentration of test compound. Following this compound incubation period, cells were clamped to −110 mV for three seconds to recover unbound channels and put through the same 26 pulse voltage protocol as above. Peak inward current during the 26th pulse to −20 mV in the presence of compound was divided by the peak inward current evoked by the 26th pulse to −20 mV in the absence of compound to determine percent inhibition. Concentration-response curves of percent inhibition as a function of concentration were generated to calculate IC50 values as described in Kornecook, T. J.; Yin, R.; Altmann, S.; et al. Pharmacologic Characterization of AMG8379, a Potent and Selective Small Molecule Sulfonamide Antagonist of the Voltage-Gated Sodium Channel NaV1. 7.
The potency of the compounds of the present invention were evaluated on human NaV1.7 channels using the above described IonWorks Barracuda automated electrophysiology platform that evaluates the ability of compounds to block sodium conductance through NaV1.7 channels. A voltage-protocol that prosecutes both state-dependent as well as use-dependent inhibition was used as these modes of action are thought to be more relevant for the native state of NaV1.7 channels in pain sensing neurons in vivo.
`COc1cc([C@@H]2C[C@H]2C)c(F)cc1-n1c(=O)ccc2cc(S(=O)(=O)Nc3ccon3)ccc21` (atropisomer, axis not shown; (P)) [Example 6, (P)-1-(5-fluoro-2-methoxy-4-((1R,2R)-2-methylcyclopropyl)phenyl)-N-(isoxazol-3-yl)-2-oxo-1,2-dihydroquinoline-6-sulfonamide] gave an IC50 of 20 nM. `COc1cc([C@@H]2C[C@H]2C(F)(F)F)c(F)cc1-n1c(=O)ccc2cc(S(=O)(=O)Nc3ncccn3)ccc21` (atropisomer, axis not shown; (P)) [Example 20, (P)-1-(5-fluoro-2-methoxy-4-((1R,2R)-2-(trifluoromethyl)cyclopropyl)phenyl)-2-oxo-N-(pyrimidin-2-yl)-1,2-dihydroquinoline-6-sulfonamide] was tested, and the IC50 was 24 nM. In the case of `COc1cc([C@@H]2C[C@H]2C(F)(F)F)c(Cl)cc1-n1c(=O)ccc2cc(S(=O)(=O)Nc3ccon3)ccc21` (atropisomer, axis not shown; (P)) [Example 18, (P)-1-(5-chloro-2-methoxy-4-((1R,2R)-2-(trifluoromethyl)cyclopropyl)phenyl)-N-(isoxazol-3-yl)-2-oxo-1,2-dihydroquinoline-6-sulfonamide], the IC50 is reported as 7 nM. `COc1cc(C2(C(F)(F)F)CC2)c(F)cc1-n1c(=O)ccc2cc(S(=O)(=O)Nc3ccon3)ccc21` (single isomer, unassigned) [Example 22, (P)-1-(5-fluoro-2-methoxy-4-(1-(trifluoromethyl)cyclopropyl)phenyl)-N-(isoxazol-3-yl)-2-oxo-1,2-dihydroquinoline-6-sulfonamide] showed an IC50 of 14 nM. For `COc1cc([C@H]2C[C@@H]2C(F)(F)F)c(F)cc1-n1c(=O)ccc2cc(S(=O)(=O)Nc3ccon3)c(F)cc21` (single isomer, unassigned) [Example 46], the IC50 was 11 nM. In the case of `COc1cc([C@H]2C[C@@H]2C(F)(F)F)c(Cl)cc1-n1c(=O)ccc2cc(S(=O)(=O)Nc3ncccn3)ccc21` (atropisomer, axis not shown; (P)) [Example 12, (P)-1-(5-chloro-2-methoxy-4-((1S,2S)-2-(trifluoromethyl)cyclopropyl)phenyl)-2-oxo-N-(pyrimidin-2-yl)-1,2-dihydroquinoline-6-sulfonamide], the IC50 is reported as 17 nM. In the case of `COc1cc([C@H]2C[C@@H]2C(F)(F)F)c(F)cc1-n1c(=O)ccc2cc(S(=O)(=O)Nc3ccon3)ccc21` (atropisomer, axis not shown; (P)) [Example 4, (P)-1-(5-fluoro-2-methoxy-4-((1S,2S)-2-(trifluoromethyl)cyclopropyl)phenyl)-N-(isoxazol-3-yl)-2-oxo-1,2-dihydroquinoline-6-sulfonamide], the IC50 is reported as 11 nM. `COc1cc([C@H]2C[C@@H]2C(F)(F)F)c(C#N)cc1-n1c(=O)ccc2cc(S(=O)(=O)Nc3ccon3)ccc21` (atropisomer, axis not shown; (P)) [Example 37, (P)-1-(5-cyano-2-methoxy-4-((1S,2S)-2-(trifluoromethyl)cyclopropyl)phenyl)-N-(isoxazol-3-yl)-2-oxo-1,2-dihydroquinoline-6-sulfonamide] was tested, and the IC50 was 7 nM. In the case of `COc1cc([C@@H]2CC2(F)F)c(F)cc1-n1c(=O)ccc2cc(S(=O)(=O)Nc3ccon3)ccc21` (atropisomer, axis not shown; (P)) [Example 11, (P)-(S)-1-(4-(2,2-difluorocyclopropyl)-5-fluoro-2-methoxyphenyl)-N-(isoxazol-3-yl)-2-oxo-1,2-dihydroquinoline-6-sulfonamide], the IC50 is reported as 59 nM. Work on `COc1cc([C@H]2C[C@@H]2C2CC2)c(F)cc1-n1c(=O)ccc2cc(S(=O)(=O)Nc3ccon3)ccc21` (atropisomer, axis not shown; (P)) [Example 31, (P)-1-(4-((1R,2S)-[1,1′-bi(cyclopropan)]-2-yl)-5-fluoro-2-methoxyphenyl)-N-(isoxazol-3-yl)-2-oxo-1,2-dihydroquinoline-6-sulfonamide] yielded an IC50 of 9 nM. `COc1cc([C@@H]2C[C@H]2C(F)(F)F)c(F)cc1-n1c(=O)ccc2cc(S(=O)(=O)Nc3ncco3)ccc21` (atropisomer, axis not shown; (P)) [Example 35, (P)-1-(5-fluoro-2-methoxy-4-((1R,2R)-2-(trifluoromethyl)cyclopropyl)phenyl)-N-(oxazol-2-yl)-2-oxo-1,2-dihydroquinoline-6-sulfonamide] was tested, and the IC50 was 11 nM. Compound `COc1cc([C@H]2C[C@@H]2C(F)(F)F)c(F)cc1-n1c(=O)ccc2cc(S(=O)(=O)Nc3ncccn3)ccc21` (atropisomer, axis not shown; (P)) [Example 21, (P)-1-(5-fluoro-2-methoxy-4-((1S,2S)-2-(trifluoromethyl)cyclopropyl)phenyl)-2-oxo-N-(pyrimidin-2-yl)-1,2-dihydroquinoline-6-sulfonamide] has an IC50 of 35 nM. `COc1cc(C2(C(F)(F)F)CC2)c(Cl)cc1-n1c(=O)ccc2cc(S(=O)(=O)Nc3ccon3)ccc21` (atropisomer, axis not shown; (P)) [Example 24, (P)-1-(5-chloro-2-methoxy-4-(1-(trifluoromethyl)cyclopropyl)phenyl)-N-(isoxazol-3-yl)-2-oxo-1,2-dihydroquinoline-6-sulfonamide] was tested, and the IC50 was 6 nM. `COc1cc(C2(C(F)(F)F)CC2)c(Cl)cc1-n1c(=O)ccc2cc(S(=O)(=O)Nc3ncccn3)ccc21` (atropisomer, axis not shown; (P)) [Example 25, (P)-1-(5-chloro-2-methoxy-4-(1-(trifluoromethyl)cyclopropyl)phenyl)-2-oxo-N-(pyrimidin-2-yl)-1,2-dihydroquinoline-6-sulfonamide] showed an IC50 of 22 nM.
